Read-outs that look alike come from different tables or passages of the source.
Legend:
STAT3 protein = target: T1, STAT3 protein (Homo sapiens, UniProt P40763); experiment: In vitro competitive STAT3 binding assay (fluorescence polarization)
T1 construct: human STAT3 protein (residues 122-722) fused to His-tag; His-tag
Excerpt: To quantitatively determine the binding affinities of STAT3 inhibitors to STAT3 protein, a sensitive and quantitative in vitro binding assay was developed based upon fluorescence polarization (FP) method. For this FP assay, 5-carboxyfluorescein (5-Fam) was coupled to a phosphopeptide (phospho-Tyr-Leu-Pro-Gln-Thr-Val-amide) with two beta-alanine and one glycine residues as the spacer between 5-Fam and the phosphopeptide to obtain 5-Fam-beta-Ala-beta-Ala-Gly-phospho-Tyr-Leu-Pro-Gln-Thr-Val-amide as the fluorescently tagged tracer, which was named as STT2 peptide. […] The recombinant human STAT3 protein (residues 122-722) fused to His-tag was stable and soluble.
Competitive binding experiments were carried out using 150 nM of STAT3 protein and 5 nM of STT2 peptide with different concentrations of a tested STAT3 inhibitor. For each experiment, two controls were included. One control contained STAT3 protein and STT2 peptide, and the second control contained STT2 peptide only. The polarization values were measured after 2-3 hours of incubation using an ULTRA READER (Tecan U.S. Inc., Research Triangle Park, N.C.). IC50 values, the inhibitor concentration at which 50% of the fluorescently tagged STT2 peptide is displaced by STAT3 inhibitors, was determined from a plot using nonlinear least-squares analysis using GRAPHPAD PRISM software (GraphPad Software, Inc., San Diego, Calif.). […]

[1] = system: MDA-MB-231 cancer cell line; experiment: Cell growth assay (WST-8); assay type: cell-based; settings: Homo sapiens, MDA-MB-231, 96 h; WST-8, 4 days; read-out: Inhibition of cell growth IC50, MDA-MB-231 cancer cell line
Protocol: (§1) The effect of STAT3 compounds on cell growth was evaluated by a WST-8 [2-(2-methoxy-4-nitrophenyl)-3-(4-nitrophenyl)-5-(2,4-disulfophenyl)-2H-tetrazolium, monosodium salt assay (Dojindo Molecular Technologies, Inc). Cells (3000-4000 cells in each well) were cultured in 96-well tissue culture plates in medium (200 μL) containing various concentrations of STAT3 compounds for 4 days. At the end of incubation, WST-8 dye (20 μL) was added to each well and incubated for an additional 1-3 h, and then the absorbance was measured in a microplate reader (Molecular Devices) at 450 nm. Cell growth inhibition was evaluated as the ratio of the absorbance of the sample to that of the control.

[2] = system: MDA-MB-468 cancer cell line; experiment: Cell growth assay (WST-8); assay type: cell-based; settings: Homo sapiens, MDA-MB-468, 96 h; WST-8, 4 days; read-out: Inhibition of cell growth IC50, MDA-MB-468 cancer cell line
Protocol: as §1

[3] = FP competitive binding, fluorescently tagged STT2 peptide tracer, read-out: Binding affinities to STAT3 IC50

T1 sequence (P40763 122-722): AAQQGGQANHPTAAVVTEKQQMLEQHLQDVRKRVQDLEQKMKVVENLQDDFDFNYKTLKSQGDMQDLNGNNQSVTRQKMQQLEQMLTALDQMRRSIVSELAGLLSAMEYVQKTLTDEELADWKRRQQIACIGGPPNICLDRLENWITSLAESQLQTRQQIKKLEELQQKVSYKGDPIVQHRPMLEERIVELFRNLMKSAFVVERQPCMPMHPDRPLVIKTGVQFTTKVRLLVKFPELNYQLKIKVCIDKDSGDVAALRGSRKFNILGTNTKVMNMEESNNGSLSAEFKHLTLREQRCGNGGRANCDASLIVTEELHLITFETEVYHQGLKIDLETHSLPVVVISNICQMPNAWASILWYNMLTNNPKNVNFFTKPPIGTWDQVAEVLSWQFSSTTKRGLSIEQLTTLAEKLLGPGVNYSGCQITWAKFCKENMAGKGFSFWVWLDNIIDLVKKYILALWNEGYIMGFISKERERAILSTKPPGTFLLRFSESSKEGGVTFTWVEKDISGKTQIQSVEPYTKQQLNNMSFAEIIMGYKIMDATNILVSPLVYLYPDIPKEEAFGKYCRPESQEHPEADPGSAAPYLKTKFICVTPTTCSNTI

Row | Compound | IC50 (STAT3 protein; [3]) [µM] | IC50 [1] [µM] | IC50 [2] [µM] | IC50 (STAT3 protein) [µM]
1 | CCOC(=O)C(Oc1ccc(C[C@@H](C(=O)N[C@H]2CCCCC3CC[C@@H](C(=O)N[C@@H](CCCNC(C)=O)C(=O)NCc4ccccc4)N3C2=O)N(C)C)cc1)C(=O)OCC (stereo partly drawn) | > 10 | > 100 | > 100 | –
2 | CCOC(=O)C(Oc1ccc(C[C@@H](C(=O)N[C@H]2CCCCC3CC[C@@H](C(=O)N[C@@H](Cc4c[nH]cn4)C(=O)NCc4ccccc4)N3C2=O)N(C)C)cc1)C(=O)OCC (stereo partly drawn) | > 10 | > 100 | > 100 | –
3 | CN(C)[C@@H](Cc1ccc(OC(C(=O)O)C(=O)O)cc1)C(=O)N[C@H]1CCCCC2CC[C@@H](C(=O)N[C@@H](Cc3c[nH]cn3)C(=O)NCc3ccccc3)N2C1=O (stereo partly drawn) | > 10 | > 100 | > 100 | –
4 | CC(=O)NCCC[C@H](NC(=O)[C@@H]1CCC2CCCC[C@H](NC(=O)[C@H](Cc3ccc(OC(C(=O)O)C(=O)O)cc3)N(C)C)C(=O)N21)C(=O)NCc1ccccc1 (stereo partly drawn) | > 10 | > 100 | > 100 | –
5 | CC(=O)N[C@@H](Cc1ccc(OCP(=O)(O)O)cc1)C(=O)NC1CCCC[C@H]2CC[C@@H](C(=O)N[C@@H](Cc3c[nH]cn3)C(=O)NCc3ccccc3)N2C1=O (stereo in doubt) [Example 32] | – | > 100 | > 100 | < 30
6 | CN(C)[C@@H](Cc1ccc(OCP(=O)(O)O)cc1)C(=O)NC1CCCC[C@H]2CC[C@@H](C(=O)N[C@@H](Cc3c[nH]cn3)C(=O)NCc3ccccc3)N2C1=O (stereo in doubt) [Example 33] | > 100 | > 100 | > 100 | –
7 | CN(C)[C@@H](Cc1ccc(OCP(=O)(O)O)cc1)C(=O)NC1CCCC[C@H]2CC[C@@H](C(=O)N[C@@H](Cc3c[nH]cn3)C(=O)NCCc3ccccc3)N2C1=O (stereo in doubt) [Example 34] | < 30 | > 100 | > 100 | –
8 | CN[C@@H](Cc1ccc(OCP(=O)(O)O)cc1)C(=O)NC1CCCC[C@H]2CC[C@@H](C(=O)N[C@@H](Cc3c[nH]cn3)C(=O)NCc3ccccc3)N2C1=O (stereo in doubt) [Example 35] | < 100 | > 100 | > 100 | –
9 | CN(C)[C@@H](Cc1ccc(OP(=O)(O)O)cc1)C(=O)N[C@H]1CCCCC2CC[C@@H](C(=O)N[C@@H](CCC(N)=O)C(=O)NCc3ccccc3)N2C1=O (stereo in doubt) [Example 36] | < 5 | > 100 | > 100 | –
10 | CN(C)[C@@H](Cc1ccc(OP(=O)(O)O)cc1)C(=O)N[C@H]1CCCCC2CC[C@@H](C(=O)N[C@@H](Cc3c[nH]cn3)C(=O)NCc3ccccc3)N2C1=O (stereo in doubt) [Example 39] | < 10 | > 100 | > 100 | –
11 | CN[C@@H](Cc1ccc(OP(=O)(O)O)cc1)C(=O)N[C@H]1CCCCC2CC[C@@H](C(=O)N[C@@H](CCC(N)=O)C(=O)NCc3ccccc3)N2C1=O (stereo in doubt) [Example 40] | < 1 | > 30 | > 100 | –
12 | NC(=O)CC[C@H](NC(=O)[C@@H]1CCC2CCCC[C@H](NC(=O)[C@H](Cc3ccc(OP(=O)(O)O)cc3)NC(=O)OCc3ccccc3)C(=O)N21)C(=O)NCc1ccccc1 (stereo in doubt) [Example 41] | – | > 50 | > 100 | < 1
13 | CC(=O)N[C@@H](Cc1ccc(OP(=O)(O)O)cc1)C(=O)N[C@H]1CCCC[C@H]2CC[C@@H](C(=O)N[C@@H](CCC(N)=O)C(=O)NCc3ccccc3)N2C1=O [Example 1] | < 1 | > 20 | > 100 | –
14 | NC(=O)CC[C@H](NC(=O)[C@@H]1CC[C@@H]2CCCC[C@H](NC(=O)[C@H](Cc3ccc(OP(=O)(O)O)cc3)NC(=O)CCc3ccccc3)C(=O)N21)C(=O)NCc1ccccc1 [Example 2] | – | > 20 | > 100 | < 1
15 | CC(C)(C)OC(=O)CCc1ccc(CCC(=O)N[C@H]2CCCC[C@H]3CC[C@@H](C(=O)NCC[C@H](O)CO)N3C2=O)cc1 [Example 3] | > 100 | > 30 | > 100 | –
16 | O=C(O)CCc1ccc(CCC(=O)N[C@H]2CCCC[C@H]3CC[C@@H](C(=O)NCC[C@H](O)CO)N3C2=O)cc1 [Example 4] | > 100 | > 30 | > 100 | –

Row | Compound | IC50 (STAT3 protein; [3]) [µM] | IC50 [1] [µM] | IC50 [2] [µM] | IC50 (STAT3 protein) [µM]
17 | NC(=O)CC[C@H](NC(=O)[C@@H]1CC[C@@H]2CCCC[C@H](NC(=O)CCc3ccc(CCC(=O)O)cc3)C(=O)N21)C(=O)NCc1ccccc1 [Example 5] | > 100 | > 50 | > 100 | –
18 | CC(=O)N[C@@H](Cc1ccc(O)cc1)C(=O)N[C@H]1CCCC[C@H]2CC[C@@H](C(=O)N[C@@H](CCC(N)=O)C(=O)NCc3ccccc3)N2C1=O [Example 6] | > 100 | > 100 | > 100 | –
19 | CC(=O)N[C@@H](Cc1ccc(OCC(=O)O)cc1)C(=O)N[C@H]1CCCC[C@H]2CC[C@@H](C(=O)N[C@@H](CCC(N)=O)C(=O)NCc3ccccc3)N2C1=O [Example 7] | > 50 | > 100 | > 100 | –
20 | C[C@H](NC(=O)[C@@H]1CC[C@@H]2CCCC[C@H](NC(=O)[C@H](Cc3ccc(OP(=O)(O)O)cc3)NC(=O)OCc3ccccc3)C(=O)N21)C(=O)NCc1ccccc1 [Example 8] | – | > 10 | > 10 | > 20
21 | O=C(N[C@@H](Cc1ccc(OP(=O)(O)O)cc1)C(=O)N[C@H]1CCCC[C@H]2CC[C@@H](Cn3cc(-c4ccccc4)nn3)N2C1=O)OCc1ccccc1 [Example 9] | > 20 | > 5 | > 5 | –
22 | C[C@H](NC(=O)[C@@H]1CC[C@@H]2CCCC[C@H](NC(=O)[C@@H](N)Cc3ccc(OC(C(=O)O)C(=O)O)cc3)C(=O)N21)C(=O)NCc1ccccc1 [Example 10] | > 100 | > 50 | > 100 | –
23 | N=C(N)NCCC[C@H](NC(=O)[C@@H]1CC[C@@H]2CCCC[C@H](NC(=O)[C@H](Cc3ccc(OP(=O)(O)O)cc3)NC(=O)OCc3ccccc3)C(=O)N21)C(=O)NCc1ccccc1 [Example 11] | – | > 50 | > 100 | > 5
24 | N=C(N)NCCC[C@H](NC(=O)[C@@H]1CC[C@@H]2CCCC[C@H](NC(=O)[C@@H](N)Cc3ccc(OP(=O)(O)O)cc3)C(=O)N21)C(=O)NCc1ccccc1 [Example 12] | > 5 | < 50 | > 100 | –
25 | CNC(=O)[C@H](CCC(N)=O)NC(=O)[C@@H]1CC[C@@H]2CCCC[C@H](NC(=O)[C@H](Cc3ccc(OP(=O)(O)O)cc3)NC(=O)OCc3ccccc3)C(=O)N21 [Example 13] | – | > 100 | > 100 | < 1
26 | NCCCCNC(=O)[C@@H]1CC[C@@H]2CCCC[C@H](NC(=O)[C@H](Cc3ccc(OP(=O)(O)O)cc3)NC(=O)OCc3ccccc3)C(=O)N21 [Example 14] | < 10 | > 100 | > 100 | –
27 | CCCNC(=O)[C@@H]1CC[C@@H]2CCCC[C@H](NC(=O)[C@H](Cc3ccc(OP(=O)(O)O)cc3)NC(=O)OCc3ccccc3)C(=O)N21 [Example 15] | < 30 | > 30 | > 100 | –
28 | NC(=O)CCCNC(=O)[C@@H]1CCC2CCCC[C@H](NC(=O)[C@H](Cc3ccc(OP(=O)(O)O)cc3)NC(=O)OCc3ccccc3)C(=O)N21 (stereo partly drawn) [Example 16] | < 30 | > 100 | > 100 | –
29 | CNC(=O)CCCNC(=O)[C@@H]1CC[C@@H]2CCCC[C@H](NC(=O)[C@H](Cc3ccc(OP(=O)(O)O)cc3)NC(=O)OCc3ccccc3)C(=O)N21 [Example 17] | < 30 | > 100 | > 100 | –
30 | CN(C)C(=O)CCCNC(=O)[C@@H]1CC[C@@H]2CCCC[C@H](NC(=O)[C@H](Cc3ccc(OP(=O)(O)O)cc3)NC(=O)OCc3ccccc3)C(=O)N21 [Example 18] | < 30 | > 100 | > 100 | –
31 | CNCCCNC(=O)[C@@H]1CC[C@@H]2CCCC[C@H](NC(=O)[C@H](Cc3ccc(OP(=O)(O)O)cc3)NC(=O)OCc3ccccc3)C(=O)N21 [Example 19] | < 100 | > 100 | > 100 | –
32 | NCCC[C@H](NC(=O)[C@@H]1CC[C@@H]2CCCC[C@H](NC(=O)[C@H](Cc3ccc(OP(=O)(O)O)cc3)NC(=O)OCc3ccccc3)C(=O)N21)C(=O)NCc1ccccc1 [Example 20] | – | > 50 | > 100 | < 10
